Assay results from US6761895B2, “Drug delivery system for averting pharmacokinetic drug interaction and method thereof” (priority 2000, dated 2004).

Legend:
[1] = with administration of cimetidine, concomitant use with ketoconazole; cited from earlier work
[2] = system: carriers on the epithelial cells of the small intestines; settings: cefadroxil concomitantly administered with cefalexine; cited from earlier work
CYP3A4 [3] = assay: Test Example 3: midazolam plasma AUC in dogs, alone or with concomitant diltiazem; settings: male, beagle, dog, po, 4 mg/dog
Experimental: The aqueous solution for oral administration containing midazolam was orally administered (4 mg/dog) using a catheter for oral administration to a male beagle dogs (n=3) that had been fasted for approximately 20 hours.

CYP3A4 [4] = assay: Test Example 2: midazolam plasma AUC in dogs, alone or with concomitant conivaptan; settings: male, beagle, dog, po, 4 mg/dog
Experimental: The following experiments were conducted using midazolam, which is metabolized CYP3A4, as a concomitant drug of conivaptan hydrochloride.
(§1) (1) Aqueous solution for oral administration containing midazolam: After preparing commercial midazolam injectable liquid (brand name: Dormicum® injection) to a concentration of 0.2 mg/ml with aqueous hydrochloric acid solution (pH of 3), HPMC2910 was added at 3-times the amount of midazolam to obtain a liquid for oral administration.
After administration, blood was collected from the veins of the front legs and the plasma concentration of midazolam was determined by the HPLC/UV method over time.
Thirty minutes after administration the aqueous solution for oral administration containing midazolam was orally administered using a catheter for oral administration (4 mg/dog). After midazolam administration, blood was collected from the veins of the front legs and the plasma concentration of midazolam was determined by the HPLC/UV method over time.
Thirty minutes after administration an aqueous solution for oral administration containing midazolam (4 mg/dog) was orally administered using a catheter for oral administration. After midazolam administration, blood was collected from the veins of the front legs and the plasma concentration of midazolam was determined by the HPLC/UV method over time.

CYP3A4 [5] = assay: Test Example 4: midazolam plasma AUC in dogs, alone or with concomitant ketoconazole; settings: male, beagle, dog, po, 4 mg/dog
Experimental: as §1
The aqueous solution for oral administration containing midazolam was orally administered(4 mg/dog) using a catheter for oral administration to male beagle dogs (n=2) that had been fasted for approximately 20 hours.

## CN/C(=N/CCSCc1nc[nH]c1C)NC#N [cimetidine]
[1]
  gastric pH: 3 to 5

## CC1=C(C(=O)O)N2C(=O)[C@@H](NC(=O)[C@H](N)c3ccc(O)cc3)[C@H]2SC1 [cefadroxil]
[2]
  change in cefadroxil plasma concentration: reduction by approximately half

## Cc1ncc2n1-c1ccc(Cl)cc1C(c1ccccc1F)=NC2 [midazolam]
CYP3A4 [3]
  AUC: 55 ng·h/mL
CYP3A4 [4]
  AUC: 9 ± 6 ng·h/mL
CYP3A4 [5]
  AUC: 68.7 ng·h/mL
